Measured values: patent publication US20120065198A2, “Detection and Treatment of Schizophrenia” (Tokai University Educational System, priority 2007, published 2012)

Experiments:
[1] = test system: pentosidine formation; test: Inhibitory effects of phenylene derivatives (II) on AGEs (pentosidine) formation; type: biochemical; design: AGE Formation Inhibition Ratio (%): concentration or dose not given beside the values; settings: same method used in Test Example 1
Experimental: (§1) Plasma was collected from hemodialysis patients prior to dialysis with the patients' consent, and the plasma was filtered and sterilized. To the plasma (450 μL) was added solutions of TM-2002 in dimethylsulfoxide (50 μL) (final concentrations: 0.8, 2.0, and 5.0 mM), and the mixtures were incubated for 1 week at 37° C. The levels of the pentosidine formation were measured.
Pentosidine was measured as follows. To each sample (50 μL) after incubation was added an equal volume of 10% trichloroacetic acid, and the mixture was subsequently centrifuged at 5,000 g for 5 minutes. After the supernatant was removed, the pellet was washed with 5% trichloroacetic acid (300 μL). The pellet was dried under reduced pressure, and subsequently hydrolyzed in a 6N HCl solution (100 μL) under a nitrogen atmosphere for 16 hours at 110° C. To the acid hydrolysate was then added 5N NaOH (100 μL) and 0.5 M phosphate buffer (pH 7.4) (200 μL); the mixture was subsequently filtered through a micropore filter with 0.5 μm pores and diluted with PBS. The concentration of the released pentosidine was measured by reverse-phase HPLC using a fluorescence detector (RF-10A, Shimadzu Corporation) (Miyata, T. et al.; Proc. Natl. Acad. Sci. USA, Vol. 93, p. 2353-2358, 1996). The effluent was monitored at the excitation/emission wavelength of 335/385 nm. Synthetic pentosidine was used as the reference material. The detection limit of pentosidine was 0.1 pmol/mg protein. […]

[2] = test system: pentosidine formation; test: Inhibitory activity on pentosidine formation, samples incubated with BSA and arabinose; type: biochemical; settings: incubated with BSA and arabinose instead of patient plasma
Experimental: as §1
Pentosidine was measured as follows. To each sample (50 μL) after incubation was added an equal volume of 10% trichloroacetic acid, and the mixture was subsequently centrifuged at 5,000 g for 5 minutes. After the supernatant was removed, the pellet was washed with 5% trichloroacetic acid (300 μL). The pellet was dried under reduced pressure, and subsequently hydrolyzed in a 6N HCl solution (100 μL) under a nitrogen atmosphere for 16 hours at 110° C. To the acid hydrolysate was then added 5N NaOH (100 μL) and 0.5 M phosphate buffer (pH 7.4) (200 μL); the mixture was subsequently filtered through a micropore filter with 0.5 μm pores and diluted with PBS. The concentration of the released pentosidine was measured by reverse-phase HPLC using a fluorescence detector (RF-10A, Shimadzu Corporation) (Miyata, T. et al.; Proc. Natl. Acad. Sci. USA, Vol. 93, p. 2353-2358, 1996). The effluent was monitored at the excitation/emission wavelength of 335/385 nm. Synthetic pentosidine was used as the reference material. The detection limit of pentosidine was 0.1 pmol/mg protein.
(2) Other edaravone analogues (Compounds (1) or (2)) were investigated for their inhibitory activities on pentosidine formation in the same manner as in Section (1) above, except that the samples were incubated with BSA and arabinose instead of the patient plasma. In the tables, “-” means that the test was not conducted.

SMILES | AGE Formation Inhibition Ratio (%) [1] [%] | Pentosidine Formation Ratio (%) [1] [%] | Pentosidine Formation Ratio (%) at 5 mM Drug Concentration [2] [%] | Pentosidine Formation Ratio (%) at 5 Concentration ([2]; Table 13) [%]
CS(=O)(=O)N(Cc1ccc(C2SC(=O)NC2=O)cc1)c1cccc(C(=O)O)c1 (centres unmarked) [(II-10)] | 86 | 14 | – | –
CC1=NN(c2cccc(C(F)(F)F)c2)C(=O)/C1=C/C=C/c1ccccc1 [compound 33] | – | – | 80.08 | –
CCCCS(=O)(=O)N(Cc1ccc(C2SC(=O)NC2=O)cc1)c1ccccc1 (centres unmarked) [(II-9)] | 80 | 20 | – | –
O=C1NC(=O)C(c2ccc(CN(C(=O)CCc3ccccc3)c3cccc(C(=O)O)c3)cc2)S1 (centres unmarked) [(II-20)] | 92 | 8 | – | –
CC1=NN(c2ccccc2)C(=O)/C1=C/c1ccc(O)cc1 [compound 70, 4-(4-hydroxy-benzylidene)-5-methyl-2-phenyl-2,4-dihydro-pyrazol-3-one] | – | – | – | 0.04
COC(=O)c1ccc(N2N=C(C)/C(=C/c3ccc4c(c3)OCO4)C2=O)cc1 [compound 40, 4-(4-benzo[1,3]dioxol-5-ylmethylene-3-methyl-5-oxo-4,5-dihydro-pyrazol-1-yl)-benzoic acid methyl ester] | – | – | 32.37 | –
CC1=NN(c2ccccc2)C(=O)C1Sc1nc(-c2ccc(C)cc2)cs1 (centres unmarked) [compound 21, 5-methyl-2-phenyl-4-(4-p-toluyl-thiazol-2-ylsulfanyl)-2,4-dihydro-pyrazole-3-one] | – | – | 42.07 | –
O=C1NC(=O)C(c2ccc(CN(c3cccc(C(=O)O)c3)S(=O)(=O)c3ccc(-c4ccccc4)cc3)cc2)S1 (centres unmarked) [(II-24)] | 91 | 9 | – | –
CC1=NN(c2ccccc2)C(=O)C1(N1CCOCC1)N1CCOCC1 [compound 26, 5-methyl-4,4-dimorpholine-4-yl-2-phenyl-2,4-dihydro-pyrazol-3-one] | – | – | 50.68 | –
CC1=NN(c2ccc(Cl)cc2)C(=O)/C1=C/c1ccc(O)cc1O [compound 42, 2-(4-chloro-phenyl)-4-(2,4-dihydroxy-benzylidene)-5-methyl-2,4-dihydro-pyrazol-3-one] | – | – | 68.32 | –
Cc1ncc2c(c1O)C(c1c(C)nn(-c3ccccc3)c1O)OC2 (centres unmarked) [compound 68] | – | – | 2.82 | –
CC1=NN(c2ccccc2Cl)C(=O)/C1=C/c1ccc(O)c(OCO)c1 [compound 31] | – | – | 15.57 | –
O=C1NC(=O)C(c2ccc(CN(c3cccc(C(=O)O)c3)S(=O)(=O)c3ccc4ccccc4c3)cc2)S1 (centres unmarked) [(II-25)] | 99 | 1 | – | –
CC1=NN(c2ccccc2)C(=O)/C1=C/N(C)C [compound 65, 4-dimethylaminomethylene-5-methyl-2-phenyl-2,4-dihydro-pyrazol-3-one] | – | – | 62.43 | –
CCCCS(=O)(=O)N(Cc1ccc(C2SC(=O)NC2=O)cc1)c1cccc(C(=O)O)c1 (centres unmarked) [(II-11)] | 89 | 11 | – | –
CC1=NN(c2ccccc2)C(=O)C12Sc1ccccc1C2=O (centres unmarked) [compound 28] | – | – | 22.83 | –
Cc1ccc(S(=O)(=O)N(Cc2ccc(C3SC(=O)NC3=O)cc2)c2cccc(C(=O)O)c2)cc1 (centres unmarked) [(II-23)] | 90 | 10 | – | –
CC1=NN(c2ccc(F)cc2)C(=O)C1C(c1ccccc1O)c1c(C)nn(-c2ccc(F)cc2)c1O (centres unmarked) [compound 22, 2-(4-fluoro-phenyl)-4-[[1-(4-fluoro-phenyl)-5-hydroxy-3-methyl-1H-pyrazol-4-yl]-(2-hydroxy-phenyl)-methyl]-5-methyl-2,4-dihydro-pyrazol-3-one] | – | – | 2.9 | –
COc1cc(/C=C2/C(=O)N(c3ccc(C(=O)OC(C)C)cc3)N=C2C)ccc1O [compound 60] | – | – | 9.02 | –
CC1=NN(c2ccccc2)C(=O)/C1=C/c1c(C)nn(-c2ccccc2)c1O [compound 66, 4-(5-hydroxy-3-methyl-1-phenyl-1H-pyrazol-4-ylmethylene)-5-methyl-2-phenyl-2,4-dihydro-pyrazol-3-one] | – | – | 15.17 | –
O=C(O)c1cccc(N(CCc2ccccc2)Cc2ccc(-c3ccccc3-c3nnn[nH]3)cc2)c1 [(II-32)] | 81 | 19 | – | –

SMILES | AGE Formation Inhibition Ratio (%) [1] [%] | Pentosidine Formation Ratio (%) [1] [%] | Pentosidine Formation Ratio (%) at 5 mM Drug Concentration [2] [%] | Pentosidine Formation Ratio (%) at 5 Concentration ([2]; Table 13) [%]
CCCC1CCc2ccc(C(=O)O)cc2N(Cc2ccc(C3SC(=O)NC3=O)cc2)C1=O (centres unmarked) [(II-28)] | 84 | 16 | – | –
COC(=O)c1ccc(N2N=C(C)/C(=C/c3ccc(-c4ccc(S(N)(=O)=O)cc4)o3)C2=O)cc1 [compound 41, 4-{3-methyl-5-oxo-4-[5-(4-sulfamoyl-phenyl)-furan-2-ylmethylene]-4,5-dihydro-pyrazol-1-yl}-benzoic acid methyl ester] | – | – | 37.81 | –
O=C(O)c1cccc(N2N=C(c3ccccc3)/C(=C/c3ccccc3O)C2=O)c1 [compound 37] | – | – | 0.02 | –
Cc1oc(-c2ccccc2)nc1CC(=O)N(Cc1ccc(C2SC(=O)NC2=O)cc1)c1cccc(C(=O)O)c1 (centres unmarked) [(II-33)] | 82 | 18 | – | –
CC1=NN(c2ccc3ccccc3c2)C(=O)/C1=C/c1ccc(O)cc1 [compound 58] | – | – | 0.07 | –
O=C1NC(=O)C(c2ccc(Cn3ccnc3-c3ccccc3)cc2)S1 (centres unmarked) [(II-16)] | 85 | 15 | – | –
CS(=O)(=O)N(Cc1ccc(C2SC(=O)NC2=O)cc1)c1ccccc1 (centres unmarked) [(II-8)] | 81 | 19 | – | –
O=C(O)c1cccc(N(Cc2ccc(-c3ccccc3-c3nnn[nH]3)cc2)C(=O)CCc2ccccc2)c1 [(II-1)] | 80 | 20 | – | –
O=C1NC(=O)C(c2ccc(CN(Cc3ccc(-c4ccccc4)cc3)c3cccc(C(=O)O)c3)cc2)S1 (centres unmarked) [(II-68)] | 80 | 20 | – | –
O=C1NC(=O)C(c2ccc(CN(C(=O)c3ccc(-c4ccccc4)cc3)c3cccc(C(=O)O)c3)cc2)S1 (centres unmarked) [(II-21)] | 98 | 2 | – | –
Cc1nc(-c2ccc(S(=O)(=O)N(Cc3ccc(C4SC(=O)NC4=O)cc3)c3cccc(C(=O)O)c3)cc2)cs1 (centres unmarked) [(II-63)] | 80 | 20 | – | –
CCCCCN(Cc1ccc(C2SC(=O)NC2=O)cc1)c1cccc(C(=O)O)c1 (centres unmarked) [(II-6)] | 80 | 20 | – | –
O=C1NC(=O)C(c2ccc(CN(C(=O)C3CCCCC3)c3cccc(C(=O)O)c3)cc2)S1 (centres unmarked) [(II-18)] | 85 | 15 | – | –
O=C1NC(=O)C(c2ccc(CN3C(=O)C4(CC4)Cc4ccc(C(=O)O)cc43)cc2)S1 (centres unmarked) [(II-30)] | 87 | 13 | – | –
CC1(C)Cc2ccc(C(=O)O)cc2N(Cc2ccc(C3SC(=O)NC3=O)cc2)C1=O (centres unmarked) [(II-29)] | 86 | 14 | – | –
CCCc1cc2ccc(C(=O)O)cc2n(Cc2ccc(C3SC(=O)NC3=O)cc2)c1=O (centres unmarked) [(II-17)] | 84 | 16 | – | –
O=C(O)c1cccc(N(CC(=O)c2ccccc2)Cc2ccc(-c3ccccc3-c3nnn[nH]3)cc2)c1 [(II-42)] | 93 | 7 | – | –
CC1CCc2ccc(C(=O)O)cc2N1Cc1ccc(C2SC(=O)NC2=O)cc1 (centres unmarked) [(II-7)] | 87 | 13 | – | –
O=C1NC(=O)C(c2ccc(CN(c3cccc(C(=O)O)c3)S(=O)(=O)c3ccccc3)cc2)S1 (centres unmarked) [(II-22)] | 85 | 15 | – | –
O=C1NC(=O)C(c2ccc(Cn3c(-c4ccccn4)nc4ccccc43)cc2)S1 (centres unmarked) [(II-15)] | 80 | 20 | – | –
O=C1NC(=O)C(c2ccc(CN(C(=O)c3cccnc3)c3cccc(C(=O)O)c3)cc2)S1 (centres unmarked) [(II-19)] | 80 | 20 | – | –
